Source: US6586596B2, “Acetylcholine enhancers” (priority 1998, dated 2003)

Experiments:
aged rats (22 month-old) = experiment: Water maze, aged rats; format: in vivo, male Fischer 344 rats
Text: As compared with young rats, aged rats (22 month-old) were unable shorten the escape latency period. Even after the 11th trial, only a partial decrease in the latency period was evident in the aged rats.

SEP-lesioned rats = experiment: Eight-arm radial maze, medial septal nucleus (SEP) lesion-induced deficit; format: in vivo, male Wistar rats; conditions: 3.0 mg/kg/day, repeated treatment for 2 weeks
Protocol: (§1) Using male Wistar rats, the anti-amnestic effects of Cm.A on spatial cognition was evaluated using an eight-arm radial maze task. After repeated trials for spatial cognition, memory-established rats (which had more than 7 correct choices and less than one error) were utilized.
SEP (Bregma, A: 0.2 mm, L: −1.0 mm, H: −5.8 mm) was lesioned by microinjection with ibotenic acid (10 μg) similarly to that of the BF lesion of Example 4A(3).

5-HT3 receptor = target: T1, 5-HT3 receptor (Mus musculus, UniProt P23979); experiment: serotonin 5-HT3 binding assay (NovaScreen), NIE-115 cells; conditions: 25° C., 60 minutes
T1 construct: The receptor source was NIE-115 cells; host or cells: NIE-115 cells
T1 sequence (P23979 24-489): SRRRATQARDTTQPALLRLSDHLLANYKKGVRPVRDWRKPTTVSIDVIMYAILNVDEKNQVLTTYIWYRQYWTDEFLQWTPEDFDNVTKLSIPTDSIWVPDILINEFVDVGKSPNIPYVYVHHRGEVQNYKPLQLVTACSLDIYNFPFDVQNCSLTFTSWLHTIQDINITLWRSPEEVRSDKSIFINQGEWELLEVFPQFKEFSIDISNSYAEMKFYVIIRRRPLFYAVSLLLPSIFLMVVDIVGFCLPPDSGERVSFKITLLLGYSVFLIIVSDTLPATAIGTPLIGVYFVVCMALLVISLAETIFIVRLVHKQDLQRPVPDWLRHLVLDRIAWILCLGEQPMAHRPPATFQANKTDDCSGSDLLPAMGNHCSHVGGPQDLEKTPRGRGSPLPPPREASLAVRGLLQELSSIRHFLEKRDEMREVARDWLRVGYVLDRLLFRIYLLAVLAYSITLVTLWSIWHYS
Protocol: Binding affinity of a variety of compounds, including Cm.A, for the 5-HT3 receptor was investigated using a commercially available serotonin 5-HT3 binding assay (NovaScreen, Hanover, Md.). The receptor source was NIE-115 cells (See Lunnis, S. C. R. and Kilparick, G. J., 189: Evr. Jrnl. Pharmacol. 223 (1990); and Hoyer, D. and Heijt, H. C., 33 Mol. Pharmacol., 303 (1988)). The reference compound utilized was “MDL 72222,” a 5-HT3 receptor antagonist. Reactions were carried out in 20 mM HEPES (pH 7.4) containing 150 mM NaCl at 25° C. for 60 minutes. The reaction was terminated by rapid vacuum filtration onto glass fiber filters. Radioactivity trapped onto the filters was determined and compared with the control values.

[1] = system: scopolamine-induced amnesia; experiment: Passive avoidance, scopolamine-induced memory impairment; format: in vivo, male Wistar rats; conditions: 0.1, 0.3 and 3.0 mg/kg oral, 30 minutes before acquisition trial; scopolamine 0.5 mg/kg i.p.
Protocol: Cutoff latency was set at 600 seconds.
Rats were treated i.p. with scopolamine (0.5 mg/kg) 15 minutes before the acquisition trial.

Cynomologous monkeys [2] = experiment: Hepatotoxic analysis, two-week oral study; format: in vivo; conditions: 5 mg/kg/day oral, 2 weeks; as to Autopsy, organ weight and histopathology: key: − no remarkable change; ↑ increase; ↓ decrease; + slight; ++ severe (diarrhea); as to Blood biochemistry: key: − no remarkable change; ↑ increase; ↓ decrease; + slight; ++ severe (diarrhea); as to Body weight: key: − no remarkable change; ↑ increase; ↓ decrease; + slight; ++ severe (diarrhea)
Text: The following parameters were examined: body weight, clinical signs, food consumption, blood biochemistry (GOT, GPT, ALP, LDH, γ-GTP, ChE, Bil, T.Pro, Alb, A/G ratio, T.Cho, NEFA, TG). After the administration period, the animals were sacrificed and autopsied. Organs and tissues were weighed, then examined histopathologically.

[3] = system: extracellular levels of ACh in hippocampus; experiment: ACh release in hippocampus, microdialysis in freely moving rats; format: in vivo; conditions: for ACh content in perfusate increased: hippocampus
Protocol: ACh content in perfusate obtained from hippocampus (Bregma, A: −5.8 mm, L: 5.0 mm, H: 4.0 mm) of brain were continuously detected by means of HPLC and ECD through the microdialysis system using freely moving rats (See Messamore and Kawashima, supra). After an equilibration period, five fractions were allowed to obtain basal ACh content. Test substances were injected i.p., and thereafter, microdialytic analysis was conducted for 3 hr.

[4] = system: scopolamine-induced spatial memory deficit; experiment: Eight-arm radial maze, scopolamine-induced deficit in spatial memory; format: in vivo, male Wistar rats; conditions: oral dose 0.03~0.3 mg/kg; scopolamine 0.5 mg/kg i.p.
Protocol: as §1

BF-lesioned rats = experiment: Passive avoidance, basal forebrain (BF) lesion-induced memory impairment
Protocol: Using male Wistar rats, passive-avoidance studies were conducted using a step through-type, 2 compartment (light and dark) box. In the acquisition trial, at the time when the animal entered the dark area, a guillotine door was closed and an electric shock (0.5˜0.8 mA for 3 seconds) was delivered to the animal. After 24 hours, the retention trial was conducted: the rat was put in the light area and the time until the animal entered the dark area (latency) was measured. Cutoff latency was set at 600 seconds. Test substances were orally administered 30 minutes before the acquisition trial.
After 2 weeks, the acquisition trial was conducted.

Cynomologous monkeys [5] = experiment: Hepatotoxic analysis, four-week oral study; format: in vivo; conditions: oral; for Clinical signs vomiting: four weeks (10, 5, 10 mg/kg/day regimens); as to Clinical signs vomiting: key: − no remarkable change; ↑ increase; ↓ decrease; + slight; ++ severe (diarrhea)
Protocol: During the testing period, these animals were dosed with three different regimens: first, animals were dosed with 10 mg/kg/day for 7 days, followed by 32 days-washout period, second, animals were dosed with 5 mg/kg/day for 14 days, and thereafter the animals were dosed with 10 mg/kg/day for 7 days. The following parameters were examined: body weight, clinical signs, food consumption, blood biochemistry (GOT, GPT, ALP, LDH, γ-GTP, ChE, Bil, T.Pro, Alb, A/G ratio, T.Cho, NEFA, TG).

COc1c2c(nc3ccccc13)CN(CCC1CCN(Cc3ccccc3)CC1)C2=O [Cm.A, 2-[2-(1-benzylpiperizin-4-yl)ethyl]-2,3-dihydro-9-methoxy-1H-pyrrolo[3,4-b]quinolin-1-one hemifumarate]
deficit of spatial learning (escape latency) (aged rats (22 month-old)): gradually improved the deficit of spatial learning to a level nearly equivalent to young rats
deficit of spatial memory (SEP-lesioned rats): significantly improved the deficit of spatial memory
IC50 (5-HT3 receptor; IC50, 20 mM HEPES pH 7.4, 150 mM NaCl): 1180 nM
Ki (5-HT3 receptor; Ki, 20 mM HEPES pH 7.4, 150 mM NaCl): 552 nM
latency in retention trial, reversal of scopolamine effect [1]: significantly reversed the effect of scopolamine
clinical signs during the dosing period (Cynomologous monkeys [2]): caused soft stools, but to a lesser extent than the other two compounds
hepatotoxicity (Cynomologous monkeys [2]): no hepatotoxicity
Autopsy, organ weight and histopathology (Cynomologous monkeys [2]; F): −
Blood biochemistry (Cynomologous monkeys [2]; F): −
Body weight (Cynomologous monkeys [2]; F): −
Clinical signs softstool (Cynomologous monkeys [2]; F): +
Clinical signs vomiting (Cynomologous monkeys [2]; F): −
Food consumption (Cynomologous monkeys [2]; F): −
Autopsy, organ weight and histopathology (Cynomologous monkeys [2]; M): −
Blood biochemistry (Cynomologous monkeys [2]; M): −
Body weight (Cynomologous monkeys [2]; M): −
Clinical signs softstool (Cynomologous monkeys [2]; M): +
Clinical signs vomiting (Cynomologous monkeys [2]; M): −
Food consumption (Cynomologous monkeys [2]; M): −
centrally acting cholinergic symptoms (tremor, chewing and yawning) ([3]; hippocampus study, i.p., data not shown): Few centrally acting cholinergic symptoms
ACh content in perfusate increased ([3]; 10 mg/kg i.p.): 164%
ACh content in perfusate increased ([3]; 30 mg/kg i.p.): 552%
deficit of spatial cognition (correct choices, errors) [4]: significantly improved the deficit of spatial cognition
memory deficit induced by BF-lesion, repeated doses (BF-lesioned rats; 0.03~0.3 mg/kg/day for 1 week): improvement in recovery as potently as or more potently than THA and E2020
memory deficit induced by BF-lesion, single dose (BF-lesioned rats; single dose 0.03~1.0 mg/kg): partially, but significantly, recovered the memory deficit
Blood biochemistry (Cynomologous monkeys [5]; F, four weeks): ↑: TG
Clinical signs softstool (Cynomologous monkeys [5]; F, four weeks): ±
Food consumption (Cynomologous monkeys [5]; F, four weeks): −
Clinical signs vomiting (Cynomologous monkeys [5]; F): −
Blood biochemistry (Cynomologous monkeys [5]; M, four weeks): ↑: TG
Clinical signs softstool (Cynomologous monkeys [5]; M, four weeks): −
Food consumption (Cynomologous monkeys [5]; M, four weeks): −
Clinical signs vomiting (Cynomologous monkeys [5]; M): −
blood biochemical tests (Cynomologous monkeys [5]; four weeks): small increase in TG
clinical signs (Cynomologous monkeys [5]; four weeks): minimal adverse clinical signs
food consumption and body weight (Cynomologous monkeys [5]; four weeks): no remarkable change in food consumption and body weight
